Results as given in patent publication EP4613273A1, “TREATMENT OF BONE LOSS” (priority 2024, dated 2025).
Structures can show the parent of a compound that is named as a salt. Where two headings read alike, the source gives them in different places.

Experiment: Plasma pharmacokinetic of MIV-701 after single and repeated oral administration of MIV-701 besylate salt in healthy beagle dogs
Type: in vivo
Conditions: for Cmax at 312 h / Tmax at 312 h / AUC(0-inf) at 312 h / AUC(0-t) at 312 h / half-life at 312 h / Cmax at 0 h / Tmax at 0 h / AUC(0-inf) / AUC(0-t) / half-life: dog; for AUC(0-inf) at 312 h / AUC(0-inf): read-out: AUC(0-infini) (converted); for AUC(0-t) at 312 h / AUC(0-t): read-out: AUC(0-tfinal) (converted); for half-life at 312 h / half-life: read-out: T1/2 elimination (converted)
Description: Compound Ib besylate salt (referred to as MIV-701 besylate salt) was administered once daily for 14 days to 3 healthy beagle dogs at three different doses: 1 mg/kg, 10 mg/kg and 100 mg/kg.
The doses were consecutively administered for 14 days with a >5-day washout period between two dose levels.
Each treatment period can be resumed as follows: • J0 (T+24h): first Compound Ib besylate salt administration, withdrawal of blood samples for pharmacokinetic and plasma CTX-1 assessment (pre-dose and 0.5h, 1h, 2h, 4h, 8h and 24h after drug administration), pre-dose blood samples for hematology and clinical biochemistry (baseline values for safety assessment). • J1 to J12: pre-dose blood samples • J13: last Compound Ib besylate salt administration, withdrawal of plasma samples for pharmacokinetic and plasma CTX-1 assessment (pre-dose and 0.5h, 1h, 2h, 4h, 8h and 24h after drug administration), pre-dose sampling for hematology and clinical biochemistry (baseline values for safety assessment). • J15-J≥19: washout period.
After centrifugation of blood samples plasma aliquots were stored at -20°C. After thawing on ice, 30 µL of plasma were transferred into 1.5 ml microtube containing 270 µL acetonitrile. Microtubes were then vigorously stirred and then centrifuged (12000 rpm, 10 min, 4°C) and the supernatant was transferred in Matrix tube for LC-MS/MS analysis. Calibration curve (9 points, 3 to 30 000 nM) was obtained by spiking plasma samples from naive dogs with appropriate quantities of Compound Ib.
Equipment: LC-MS/MS Acquity I Class-Wevo TQD (Waters®): - Acquity I Class ∘ Column: Waters® Acquity BEH C8, 50*2.1mm, 1.7 µm (40°C) ∘ Mobile phase: • ▪ A: Ammonium Formate 5mM, pH=3.8 • ▪ B: Ammonimuformate 5 mM in CH3CN 5% aqueous, pH=3.8 ∘ Injection volume: 1 µL ∘ Speed: 600 µL/min ∘ Gradient: […]
- Xevo TQD ∘ Source temperature: 150°C ∘ Desolvatation temperature: 600°C ∘ Cone gaz speed: 50L/h ∘ Desolvatation gaz speed: 1200L/h - Analytes MS characteristics
Terminal elimination half-life (t1/2) was calculated according to the following formula: T1/2 elimination = ln(2)/kel [formula] kel= slope of ln(C)=f(temps) calculated on the last points of the curves (elimination phase)/ MIV-701 exposure (Area Under the Curve; AUCt) was calculated according to trapezoidal method according to the following formula: AUCt−>inf = [C]t /kel [formula]

[1] = plasma MIV-701, oral 1 mg/kg once daily, Day 13 (repeated)
[2] = plasma MIV-701, oral 1 mg/kg, Day 0 (single)
[3] = plasma MIV-701, oral 10 mg/kg once daily, Day 13 (repeated)
[4] = plasma MIV-701, oral 10 mg/kg, Day 0 (single)
[5] = plasma MIV-701, oral 100 mg/kg once daily, Day 13 (repeated)
[6] = plasma MIV-701, oral 100 mg/kg, Day 0 (single)

In the case of `CC(C)C[C@H](NC(=O)c1ccc(-c2csc(N3CCN(C)CC3)n2)cc1)C(=O)N1C[C@H](F)[C@H]2OCC(O)(O)[C@H]21` [MIV-701 besylate salt, N-[(S)-1-((3aS,6S,6aS)-6-Fluoro-S-oxo-hexahydro-furo[3,2-b]pyrrole-4-carbony)-3-methyl-butyl]-4-[2-(4-methyl-piperazin-1-yl)-thiazol-4-yl]-benzamide benzenesulphonate], the “plasma accumulation of MIV-701 (Cmax, AUCs D13 vs D0)” value (14-day repeated oral administration, three doses) is reported as “did not show plasma accumulation”, the Cmax at 312 h [1] is reported as 6.6 nM and the Tmax at 312 h [1] is reported as 2 h. For the same compound, the AUC(0-inf) at 312 h [1] was 0.083 µM·h, the AUC(0-t) at 312 h [1] was 0.036 µM·h and the half-life at 312 h [1] was 8.6 h. The Cmax at 0 h [2] was 20 nM, the Tmax at 0 h [2] was 0.5 h and the AUC(0-inf) [2] was 0.0488 µM·h. It also gave an AUC(0-t) [2] of 0.0429 µM·h, a half-life [2] of 2.9 h and a Cmax at 312 h [3] of 130 nM. It also gave a Tmax at 312 h [3] of 4 h, an AUC(0-inf) at 312 h [3] of 1.91 µM·h and an AUC(0-t) at 312 h [3] of 1.84 µM·h. The half-life at 312 h [3] was 4.9 h, the Cmax at 0 h [4] was 139 nM and the Tmax at 0 h [4] was 1 h. It also gave an AUC(0-inf) [4] of 1.38 µM·h, an AUC(0-t) [4] of 1.35 µM·h and a half-life [4] of 4.1 h. The Cmax at 312 h [5] was 1620 nM, the Tmax at 312 h [5] was 1 h and the AUC(0-inf) at 312 h [5] was 21.4 µM·h. It also gave an AUC(0-t) at 312 h [5] of 20.7 µM·h, a half-life at 312 h [5] of 4.8 h and a Cmax at 0 h [6] of 1280 nM. It also gave a Tmax at 0 h [6] of 8 h, an AUC(0-inf) [6] of 19.9 µM·h and an AUC(0-t) [6] of 19.4 µM·h. For the same compound, the half-life [6] was 4 h, the “Kel (2-8h)” value [1] was -0.080 h⁻¹ and the “Kel (2-8h)” value [2] was -0.236 h⁻¹. The “Kel (4-24h)” value [3] was -0.142 h⁻¹, the “Kel (8-24h)” value [4] was -0.167 h⁻¹ and the “Kel (4-24h)” value [5] was -0.144 h⁻¹. The “Kel (8-24h)” value [6] was -0.174 h⁻¹.
